Results from ChEMBL document CHEMBL1152485, “Comparative chemometric modeling of cytochrome 3A4 inhibitory activity of structurally diverse compounds using stepwise MLR, FA-MLR, PLS, GFA, G/PLS and ANN techniques” (Eur J Med Chem, 2009).

Target: Cytochrome P450 3A4 (Homo sapiens, UniProt P08684)
Sequence (P08684 whole entry): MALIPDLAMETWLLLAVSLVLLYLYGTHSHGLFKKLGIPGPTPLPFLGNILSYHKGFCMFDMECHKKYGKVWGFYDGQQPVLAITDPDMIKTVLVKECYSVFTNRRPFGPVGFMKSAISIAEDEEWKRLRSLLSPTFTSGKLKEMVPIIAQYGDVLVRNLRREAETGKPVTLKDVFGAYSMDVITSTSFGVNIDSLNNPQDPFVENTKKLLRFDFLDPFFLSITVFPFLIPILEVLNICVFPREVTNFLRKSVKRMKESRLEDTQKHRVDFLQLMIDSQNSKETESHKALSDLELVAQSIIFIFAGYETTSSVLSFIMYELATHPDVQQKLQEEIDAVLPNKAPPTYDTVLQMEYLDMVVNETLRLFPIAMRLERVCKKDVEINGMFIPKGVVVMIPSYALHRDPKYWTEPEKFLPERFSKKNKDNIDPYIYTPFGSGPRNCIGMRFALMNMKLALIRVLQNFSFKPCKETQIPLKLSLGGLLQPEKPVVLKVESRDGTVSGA

Compound | IC50 [µM]
CC(C)(C(=O)c1cccnc1)c1cccnc1 [METYRAPONE] | 4.93
CCCC1COC(Cn2cncn2)(c2ccc(Cl)cc2Cl)O1 (stereo not drawn) [PROPICONAZOLE] | 1.04
CC(C)(C)C(=O)C(Oc1ccc(Cl)cc1)n1cncn1 (stereo not drawn) [TRIADIMEFON] | 9.29
